Legend:
[1] = molecular target: T1, human CYP3A4 (Homo sapiens, UniProt P08684); assay: Inhibitory effect on CYP3A4 (Luciferin-IPA); assay type: in vitro ADME; conditions: test compound 10 μM, 30-minutes pre-incubation, Luciferin-IPA 3 μM
T1 construct: purchased BD Biosciences
Method: Inhibitory Effect on CYP3A4
The dimethyl sulfoxide (DMSO) solution of the test compound with a concentration 1000 times higher than the evaluation concentration was prepared, and a reaction solution was prepared by diluting the solution. Enzyme reaction was performed by incubating in a potassium phosphate buffer solution (pH 7.4) containing 1 μM to 10 μM test compound, 3.2 mM magnesium chloride, 0.2 pmol human CYP3A4 (BD Biosciences), 0.5 mM reduced nicotinamide adenine dinucleotide phosphate (NADPH) and 3 μM Luciferin-IPA (Promega) at 37° C. for 10 minutes. The volume of the reaction solution was 50 μL/well. The 30-minutes pre-incubation group was incubated at 37° C. for 30 minutes before adding the substrate, the Luciferin-IPA solution (12.5 μL/well). At the end of the enzyme reaction, 50 μL/well of a Luciferin detection reagent (Promega) was added to the wells, and the plate was left at room temperature for 20 minutes. Then, the emission intensities were measured with Infinite M1000 (TECAN), and the enzyme activities (%) relative to the value of the group to which the test compound was not added. As a comparative example, aprepitant, which is an NK1 receptor antagonist, was tested in the same manner.
Test was measured by the above test method, and the results are shown in Table 9 when the concentration of the test compound was 10 μM. In the table, Ex. No. means the Example number, and Pre-incubation (30 min) (%) means the enzyme activities (%) of the 30-minutes pre-incubation groups using the test compounds.

[2] = molecular target: T2, human NK1 receptor (Homo sapiens, UniProt P25103); assay: Inhibitory effect on human NK1 receptor (substance P-induced increase in intracellular calcium concentration); assay type: cell-based; conditions: HEK-293T; substance P 0.1 μM; compound 1 μM; human NK1 receptor-expressing 293T cells; vehicle = 100%; read-out: SPRR (%) (Substance P-Response Remaining, intracellular calcium concentration)
T2 construct: expressed in transfected cells; host or cells: 293T cells (RIKEN), transient transfection with pcDNA3.1(-) plasmid
Method: Inhibitory Effect on Human NK1 Receptor
(1) Preparation of Human NK1 Receptor-Expressing Cells
Human NK1 receptor-expressing cells were prepared by the same methods as those described in 2-3 and 2-4 of Test Example 1.
(2) Study on Inhibitory Effect on Increase in Intracellular Calcium Concentration
The human NK1 receptor-expressing cells were washed with 300 μL/well of a washing solution (20 mM HEPES/Hanks Balanced Salt Solution (HBSS) pH7.3). A fluorescent calcium indicator (Fluo-4 Direct Calcium Assay Kit, Life Technologies, containing 0.42 mM probenecid and 0.1% bovine serum albumin, prepared according to the protocol of the product) was added to the wells at 150 μL/well, and the plate was incubated at 37° C. for 30 minutes in an incubator. Then, DMSO solutions of a test compound, which were prepared at an 80-time higher concentration using 100% dimethyl sulfoxide (DMSO), were added to the wells at 2.5 μL/well (final concentrations of 0.1, 1 and 10 μM), and the solutions were mixed. Then, the plate was further incubated at 37° C. for 30 minutes in an incubator. After 30 minutes, the intracellular calcium concentrations were measured immediately.
The intracellular calcium concentrations were each measured as a fluorescent signal using FDSS® 7000 (Hamamatsu Photonics). A substance P (Peptide Institute, Inc.) solution which was prepared at 0.4 μM or 4 μM using an assay buffer (20 mM HEPES/Hanks Balanced Salt Solution (HBSS) pH 7.3 containing 0.1% bovine serum albumin) was added automatically to each well at 50 μL/well (final concentration of 0.1 or 1 μM) 10 seconds after starting reading, and the fluorescent signal was measured up to 120 seconds.
The intracellular calcium concentration (%) of the cells to which a test compound was added was calculated by the equation below, where the fluorescent signal of the group to which the vehicle (DMSO) was added was regarded as 100%, and the fluorescent signal before the addition of substance P was regarded as 0%. Intracellular calcium concentration (%)=(Fluorescent signal of test compound addition group)/(Fluorescent signal of vehicle addition group)×100
The intracellular calcium concentration (%) calculated was regarded as the remaining agonist activity of substance P (Substance P-Response Remaining: SPRR). In the table, Ex. No. means the Example number. SPRR (%) means the value obtained when the concentration of substance P was 0.1 μM and the concentration of the compound was 1 μM.

[3] = molecular target: T2, human NK1 receptor; assay: Affinity for human NK1 receptor (125I-substance P receptor binding test, membrane fraction); conditions: membrane fraction of human NK1 receptor-expressing 293T cells, room temperature 60 minutes, read-out: pIC50 (inverse logarithm of the concentration required for 50% inhibition of 125I-substance P binding) (converted)
Method: Affinity for Human NK1 Receptor
(3) Measurement of Binding Affinity to Human NK1 Receptor
(3-1) Preparation of Membrane Fraction from Human NK1 Receptor-Expressing Cells
Human NK1 receptor-expressing cells were prepared in a 175 cm^2 culture flask (Nippon Becton Dickinson). The formation of a complex of the human NK1 receptor expression plasmid and Lipofectamine 2000 was performed by calculating the culture area ratio and increasing the scale of the method described in the above 2-4 by the ratio. The human NK1 receptor-expressing cells were collected in a buffer solution for the membrane fraction preparation (50 mM Tris (Wako Pure Chemical), 120 mM sodium chloride (Wako Pure Chemical Industries), 5 mM potassium chloride (Wako Pure Chemical Industries), 1 mM ethylenediaminetetraacetic acid (Sigma), 0.002 mg/mL chymostatin (Peptide Institute), 0.04 mg/bacitracin (Wako Pure Chemical Industries), 0.005 mg/mL phosphoramidon (Peptide Institute) and 0.5 mM phenylmethylsulfonyl fluoride (Wako Pure Chemical Industries), pH7.4) and centrifuged at 1,880 g for 10 minutes, and the cell sediment was suspended in the buffer solution for the membrane fraction preparation. After freezing and thawing the cells once, the cells were homogenized using a Dounce-type homogenizer (cooled on ice, 1000 rpm, 20 times). The homogenized cell suspension was centrifuged at 20,000 rpm for 10 minutes, and the supernatant was removed to obtain cell sediment. The cell sediment was suspended again in the buffer solution for the membrane fraction preparation and homogenized using a Dounce-type homogenizer (cooled on ice, 1000 rpm, 30 times). The cell suspension was centrifuged at 20,000 rpm for 10 minutes, and the supernatant was removed to obtain cell sediment. The same homogenization and centrifugation were repeated again, and final cell sediment was obtained. The final cell sediment was suspended in a buffer solution for the receptor binding test (50 mM Tris (Wako Pure Chemical Industries), 3 mM manganese chloride (Wako Pure Chemical Industries), 0.002 mg/mL chymostatin (Peptide Institute), 0.04 mg/bacitracin (Wako Pure Chemical Industries) and 0.02% bovine serum albumin (Sigma), pH 7.4), and the protein concentration was measured using BCA Protein Assay Kit (Pierce).
(3-2) Receptor Binding Test
The buffer solution for the receptor binding test was dispensed to the wells of a 96-well assay plate (Greiner) at 22.5 μL/well. DMSO solutions of a test compound, which were prepared at an 80-time higher concentration using 100% dimethyl sulfoxide (DMSO), were added to the wells at 2.5 μL/well (final concentrations of 1 nM to 100 nM), and the solutions were mixed. As a radiolabeled ligand, ^125I-substance P (Substance P, [^125I]Tyr^8-, PerkinElmer) was used. ^125I-substance P was diluted with the buffer solution for the receptor binding test to a concentration resulting in […] and added to the 96-well assay plate, and the solutions were mixed. The membrane fraction prepared from the human NK1 receptor-expressing cells was diluted with the buffer solution for the receptor binding test to a concentration resulting in 8 to 10 μg/well, suspended until the suspension became in such a homogenous state that the suspension could flow through a 27G injection needle smoothly and then added to the 96-well assay plate at 150 μL/well. Then, the plate was incubated at room temperature for 60 minutes while shaking the plate. […]

T2 sequence (P25103 whole entry): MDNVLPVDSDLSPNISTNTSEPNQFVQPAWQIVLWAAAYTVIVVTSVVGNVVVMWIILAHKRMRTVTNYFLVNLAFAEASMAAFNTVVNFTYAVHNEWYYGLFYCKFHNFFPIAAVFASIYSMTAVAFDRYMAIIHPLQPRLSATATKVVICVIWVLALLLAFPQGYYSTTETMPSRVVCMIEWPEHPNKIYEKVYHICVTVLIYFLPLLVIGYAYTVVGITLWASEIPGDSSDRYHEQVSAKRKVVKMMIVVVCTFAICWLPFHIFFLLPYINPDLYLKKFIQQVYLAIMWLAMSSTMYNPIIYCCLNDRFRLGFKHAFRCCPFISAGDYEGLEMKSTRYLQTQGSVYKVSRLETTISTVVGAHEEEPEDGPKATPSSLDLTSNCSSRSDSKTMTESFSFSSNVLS
T1 sequence (P08684 whole entry): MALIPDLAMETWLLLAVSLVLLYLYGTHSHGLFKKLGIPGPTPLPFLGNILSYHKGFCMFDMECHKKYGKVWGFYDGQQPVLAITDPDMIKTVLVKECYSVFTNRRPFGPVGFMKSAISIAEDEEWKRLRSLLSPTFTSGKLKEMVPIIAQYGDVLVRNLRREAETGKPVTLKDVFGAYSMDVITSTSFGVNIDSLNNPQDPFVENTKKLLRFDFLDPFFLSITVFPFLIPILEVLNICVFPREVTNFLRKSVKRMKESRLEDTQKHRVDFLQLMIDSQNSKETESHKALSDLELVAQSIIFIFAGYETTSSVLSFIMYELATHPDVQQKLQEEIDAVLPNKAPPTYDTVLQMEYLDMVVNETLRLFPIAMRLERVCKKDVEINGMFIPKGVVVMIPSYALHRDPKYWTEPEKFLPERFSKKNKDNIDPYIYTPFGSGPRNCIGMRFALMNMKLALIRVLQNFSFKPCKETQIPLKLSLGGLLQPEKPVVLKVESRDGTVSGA

Preincubation (30 min) (%) (enzyme activities relative to group without test compound) [1] | remaining activity at 1 µM [2] [%] | IC50 [3] [nM] | SMILES
1.3 |  |  | C[C@@H](O[C@H]1OCCN(Cc2n[nH]c(=O)[nH]2)[C@H]1c1ccc(F)cc1)c1cc(C(F)(F)F)cc(C(F)(F)F)c1 [Aprepitant, aprepitant, reference compound]
 | 15 | 2.24 | Cc1cc(F)ccc1[C@H]1CN(C2CCC(CC(=O)O)CC2)CCN1C(=O)N(C)[C@H](C)c1cc(C(F)(F)F)cc(C(F)(F)F)c1 (stereo partly drawn) [Example 1, {4-[(S)-4-{[(R)-1-(3,5-Bistrifluoromethylphenyl)ethyl]methylcarbamoyl}-3-(4-fluoro-2-methylphenyl)piperazin-1-yl]cyclohexyl}acetic acid]
 | 25 | 1.38 | Cc1cc(F)ccc1[C@H]1CN(C(=O)[C@H]2CC[C@@H](CC(=O)O)CC2)CCN1C(=O)N(C)[C@H](C)c1cc(C(F)(F)F)cc(C(F)(F)F)c1 [Example 2, cis-{4-[(S)-4-{[(R)-1-(3,5-Bistrifluoromethylphenyl)ethyl]methylcarbamoyl}-3-(4-fluoro-2-methylphenyl)piperazine-1-carbonyl]cyclohexyl}acetic acid]
 | 50 | 1.41 | Cc1cc(F)ccc1[C@H]1CN(C(=O)[C@H]2CC[C@H](CC(=O)O)CC2)CCN1C(=O)N(C)[C@H](C)c1cc(C(F)(F)F)cc(C(F)(F)F)c1 [Example 3, trans-{4-[(S)-4-{[(R)-1-(3,5-Bistrifluoromethylphenyl)ethyl]methylcarbamoyl}-3-(4-fluoro-2-methylphenyl)piperazine-1-carbonyl]cyclohexyl}acetic acid]
 | 14 | 1.7 | Cc1cc(F)ccc1[C@H]1CN(C2CCC(C(=O)O)CC2)CCN1C(=O)N(C)[C@H](C)c1cc(C(F)(F)F)cc(C(F)(F)F)c1 (stereo partly drawn) [Example 6, 4-[(S)-4-{[(R)-1-(3,5-Bistrifluoromethylphenyl)ethyl]methylcarbamoyl}-3-(4-fluoro-2-methylphenyl)piperazin-1-yl]cyclohexanecarboxylic acid]
 | 6.6 | 2.04 | Cc1cc(F)ccc1[C@H]1CN(C[C@H]2CC[C@@H](C(=O)O)CC2)CCN1C(=O)N(C)[C@H](C)c1cc(C(F)(F)F)cc(C(F)(F)F)c1 [Example 7, cis-4-[(S)-4-{[(R)-1-(3,5-Bistrifluoromethylphenyl)ethyl]methylcarbamoyl}-3-(4-fluoro-2-methylphenyl)piperazin-1-ylmethyl]cyclohexanecarboxylic acid]
 | 14 | 1.86 | Cc1cc(F)ccc1[C@H]1CN(C[C@H]2CC[C@H](C(=O)O)CC2)CCN1C(=O)N(C)[C@H](C)c1cc(C(F)(F)F)cc(C(F)(F)F)c1 [Example 8, trans-4-[(S)-4-{[(R)-1-(3,5-Bistrifluoromethylphenyl)ethyl]methylcarbamoyl}-3-(4-fluoro-2-methylphenyl)piperazin-1-ylmethyl]cyclohexanecarboxylic acid]
 | 38 | 1.55 | Cc1cc(F)ccc1[C@H]1CN(Cc2ccc(CC(=O)O)cc2)CCN1C(=O)N(C)[C@H](C)c1cc(C(F)(F)F)cc(C(F)(F)F)c1 [Example 9, {4-[(S)-4-{[(R)-1-(3,5-Bistrifluoromethylphenyl)ethyl]methylcarbamoyl}-3-(4-fluoro-2-methylphenyl)piperazin-1-ylmethyl]phenyl}acetic acid]
 | 30 | 1.17 | Cc1cc(F)ccc1[C@H]1CN(C(=O)N2CCC(CC(=O)O)CC2)CCN1C(=O)N(C)[C@H](C)c1cc(C(F)(F)F)cc(C(F)(F)F)c1 [Example 10, {1-[(S)-4-{[(R)-1-(3,5-Bistrifluoromethylphenyl)ethyl]methylcarbamoyl}-3-(4-fluoro-2-methylphenyl)piperazine-1-carbonyl]piperidin-4-yl}acetic acid]
 | 24 | 1.91 | Cc1cc(F)ccc1[C@H]1CN(CC23CC(C(=O)O)(C2)C3)CCN1C(=O)N(C)[C@H](C)c1cc(C(F)(F)F)cc(C(F)(F)F)c1 [Example 11, 3-[(S)-4-{[(R)-1-(3,5-Bistrifluoromethylphenyl)ethyl]methylcarbamoyl}-3-(4-fluoro-2-methylphenyl)piperazin-1-ylmethyl]bicyclo[1.1.1]pentane-1-carboxylic acid]
 | 4.9 | 0.282 | Cc1cc(F)ccc1[C@H]1CN(C2CCC(CC(=O)O)CC2)CC[C@@H]1C(=O)N(C)[C@@H](C)c1cc(C(F)(F)F)cc(C(F)(F)F)c1 (stereo partly drawn) [Example 12, {4-[(3 S,4S)-4-{[(S)-1-(3,5-Bistrifluoromethylphenyl)ethyl]methylcarbamoyl}-3-(4-fluoro-2-methylphenyl)piperidin-1-yl]cyclohexyl}lacetic acid]
